This is an account of results in patent US10553890B2, “Aqueous redox flow batteries” (UCHICAGO ARGONNE, LLC, priority 2017, dated 2020).

Type in all cases: physicochemical
Series [1] in a line: Cyclic voltammetry (three-electrode cell, glassy carbon working electrode, Ag/AgCl reference). Conditions: for redox stability (irreversible side reactions): 5 mV/s, cycling 0 V up to about 1.2 V; for oxidation potential: glassy carbon; for observed oxidation potential: 1 mM in 0.5 M sulfuric acid, scan rate 20 mV/s, 0 V to 1 V. The protocol:
Cyclic voltammetry (CV) measurements: CV experiments were performed in custom-made three-electrode electrochemical cells with 3 mm diameter glassy carbon working electrode, a Ag/AgCl reference electrode and a platinum wire counter electrode using 1470E SOLARTRON ANALYTICAL INSTRUMENT.

Series [2] in a line: Solubility in aqueous acid. Conditions: aqueous acid / acidic conditions.
Series [3] is described as follows: Galvanostatic bulk electrolysis cycling. To be noted: 1 mM in 3.0 M sulfuric acid, constant current 2.68 mA, cut-off 0.25 V to 0.85 V. The protocol:
Galvanostatic bulk electrolysis: Galvanostatic cycling test was performed with a three-electrode bulk electrolysis electrochemical cell using 1470E SOLARTRON ANALYTICAL INSTRUMENT. Reticulated vitreous carbon was used as the working electrode, Ag/AgCl electrode was used as the reference electrode and coiled platinum enclosed in glass tubes with porous ceramic frit was used as the counter electrode.

Series [4] in a line: Diffusion coefficient measurement using Randle-Sevcik equation. Conditions: scan rates 10-100 mV/s. The protocol:
Diffusion coefficient measurement: Diffusion coefficients were measured using Randle-Sevcik equation as shown below. In this equation, ip is the peak current, n represents the number of electrons transferred in the redox reaction, F is the Faraday's constant, A is the electrode area, c represents the concentration, v is the scan rate, D is the diffusion coefficient, R is the gas constant and T is the absolute temperature.

Where [5] appears, read: 5 mM in 1.0 M sulfuric acid, scan rate 5 mV/s.

Entries after “also recorded” stand apart in the source; their conditions may differ.

With `CC1(C)CC(N)CC(C)(C)N1[O]` [4-NH2-TEMPO, 4-amino-2,2,6,6-tetramethylpiperidyl-1-oxyl], the “redox stability (irreversible side reactions)” value in series [1] (5 mM in 1.0 M sulfuric acid) is “irreversible reduction; also recorded: greater redox stability (i.e., less severe irreversible side reactions) than 4-OH-TEMPO”. In series [1] (setting [5]), the “oxidation potential higher than 4-OH-TEMPO” value worked out at 0.09 V and the oxidation potential is 0.92 V (vs. AG/AgCl). The solubility result in series [2] is listed as “higher solubility than 4-OH-TEMPO”.
In the case of `CC1(C)CC(O)CC(C)(C)N1[O]` [4-OH-TEMPO, reference compound], the “redox stability (irreversible side reactions)” value in series [1] (5 mM in 1.0 M sulfuric acid) is listed as “irreversible reduction”. Moreover, the oxidation potential in series [1] (setting [5]) was 0.83 V (vs. AG/AgCl).
Take `CN(C)c1cc(S(=O)(=O)O)c(O)c(S(=O)(=O)O)c1` [DADPS, 5-(dimethylamino)-2-hydroxybenzene-1,3-disulfonic acid]: in series [1], the observed oxidation potential was 0.66 V (vs. AG/AgCl). Also, in series [3], the “capacity and capacity retention” value is “very similar”; the “potential in bulk electrolysis relative to unsubstituted aminophenol (DMAP)” value is reported as “increased potential”.
`CN(C)c1ccc(O)cc1` [DMAP, 4-dimethylaminophenol]: the observed oxidation potential in series [1] is 0.56 V (vs. AG/AgCl). Moreover, the diffusion coefficient in series [4] (1 mM in 0.5 M sulfuric acid) was 3.9×10^−6 cm^2/s. For the same compound, the “capacity and capacity retention” value in series [3] was “very similar”.
`NCCc1ccc(O)c(O)c1` [dopamine, 3,4-dihydroxyphenethylamine, reference compound]: the diffusion coefficient in series [4] (50 mM in 0.5 M sulfuric acid) was 2.43×10^−6 cm^2/s.
